Source: patent US12599645B2, “Antibodies which bind to lysophosphatidic acid receptor 1 (LPAR1)” (DJS ANTIBODIES LTD, priority 2021, dated 2026)
Each block holds one molecule with its values, some of them ahead of it.

Tests used:
LPAR1 = LPAR1 (Homo sapiens, UniProt Q92633); experiment: BRET assay (G protein activation and βArrestin 2 biosensors); format: cell-based; parameters: expressed in transfected cells; host or cells: HEK293 (transient, PEI)
Description: Using polyethylenimine (PEI) transfection agent at a 3:1 ratio, HEK293 cells were co-transfected in suspension with hLPAR1 and one of the following biosensors: G protein activation sensors (Gαi2, Gα13, and Gαq) and the βArrestin 2-PM recruitment biosensor (+GRK2). Cells were directly seeded in 96-well plates immediately following transfection at a density of 35,000 cells/well. 48 hours post-transfection, BRET experiments were performed in both agonist and allosteric/antagonist mode. Using a plate washer, culture medium was aspirated and replaced with 30 μl of Hank's Balanced Salt Solution buffer (HBSS). Plates were equilibrated at room temperature for 60 minutes. For agonist testing, serial dilutions of the antibodies were performed in PBS and then added to each well. Antibodies were assayed at 12 concentrations in technical duplicates. Small molecules were added to each relevant well. Small molecules were assayed at 22 concentrations with each biosensor. Cells were then incubated with the antibodies or small molecules at room temperature for 60 or 10 minutes, respectively. 10 μl of 10 μM e-Coelenterazine Prolume Purple (Nanolight) was then added to each well. Cells were incubated at room temperature for an additional 10 minutes. BRET readings were then collected with a 0.4 sec integration time on a plate reader (filters: 400 nm/70 nm, 515 nm/20 nm). For allosteric testing (after agonist testing), an EC75 of the endogenous ligand (oleoyl-LPA) was added to each well already containing antibody or small molecule. Cells were incubated at room temperature for an additional 10 minutes. BRET readings were then collected with a 0.4 sec integration time on a plate reader (filters: 400 nm/70 nm, 515 nm/20 nm). BRET signals were determined by calculating the ratio of light emitted by GFP-acceptor (515 nm) over light emitted by luciferase-donor (400 nm). All BRET ratios were standardized with pre-established BRET values for positive and negative controls. The standardized BRET ratio is referred to as universal BRET (uBRET). Resulting dose-response curves were fitted using the three- or four-parameter logistic non-linear regression model in GraphPad Prism 9.
The inhibition characteristics of Antibody 12 were investigated by Bioluminescence Resonance Energy Transfer (BRET, method 1.15) and compared to a small molecule LPAR1 inhibitor of the prior art (BMS-986020), see FIG. 13. The upper lines are values recorded with LPA present and the lower lines are values recorded with LPA not present. […] This can only happen if the ligand (LPA) is also interacting with the receptor at the same time to enable some signalling. […]

[1] = test system: hepatic bile acid efflux transporters (e.g., BSEP, MRP3 and MRP4); settings: cited from earlier work
[2] = test system: idiopathic pulmonary fibrosis; settings: cited from earlier work
[3] = test system: renal fibrosis after UUO surgery; experiment: Unilateral ureteral obstruction (UUO) efficacy model of renal fibrosis; format: in vivo, Hartley guinea pigs
Description: Unilateral ureteral obstruction (UUO) is a well-characterized disease model for renal fibrosis. The UUO model encompasses key pathophysiological features of chronic kidney disease; tubular necrosis and inflammatory cell infiltration within a relatively short period.
Two unilateral ureteral obstruction (UUO) model efficacy studies were carried out in six-week old female Hartley guinea pigs. On Day 0, UUO surgery was performed. BMS-986020 was administered orally at a dose level of 30 mg/kg in a volume of 5 mL/kg twice daily at from Day −1 to 9. Isotype control and anti-LPAR1 antibody was intraperitoneally administered at a dose level of 6 mg/kg (low) or 20 mg/kg (high) in a volume of 10 mL/kg at Day −1, Day 0, Day 3 and Day 6. The viability, clinical signs, behaviour and individual body weight was monitored daily.
The animals were sacrificed at Day 10. The ligated left kidney and right kidney weight were measured at sacrifice.
Hydroxyproline is an amino acid, making up around 14% of collagen and acts as an important indicator of the severity of fibrosis. To quantify kidney hydroxyproline content, frozen posterior right section of left kidney samples were processed by an alkaline-acid hydrolysis method. AC buffer (2.2M acetic acid/0.48M citric acid) was added to the samples, followed by centrifugation to collect the supernatant. A standard curve of hydroxyproline was constructed with serial dilutions of trans-4-hydroxy-L-proline (Sigma-Aldrich, USA) starting at 16 μg/mL. The prepared samples and standards were mixed with chloramine T solution (Nacalai Tesque Inc., Japan) and incubated for 25 minutes at room temperature. The samples were then mixed with Ehrlich's solution and heated at 65° C. for 20 minutes to develop the colour. After samples were cooled on ice and centrifuged to remove precipitates, the optical density of each supernatant was measured at 560 nm. The concentrations of hydroxyproline were calculated from the hydroxyproline standard curve. Protein concentrations of kidney samples were determined using a BCA protein assay kit (Thermo Fisher Scientific, USA) and used to normalize the calculated hydroxyproline values. Kidney hydroxyproline contents were expressed as μg per mg protein.
The left kidney was fixed in Bouin's solution and embedded in paraffin. For PAS staining, sections were cut from paraffin blocks and stained with Schiff's reagent (FUJIFILM Wako pure chemical corporation, Japan) according to the manufacturer's instructions. To visualize collagen deposition, kidney sections were stained using picro-Sirius red solution (FUJIFILM Wako pure chemical corporation). For quantification of interstitial and medulla fibrosis area, bright field images in the corticomedullary region were captured using a digital camera (DFC295) at 200-fold magnification, and the positive areas in 5 fields/section were measured using ImageJ software (National Institute of Health, USA).

human LPAR1 [4] = target: T1, human LPAR1 (Homo sapiens, UniProt Q92633, Q286A); experiment: In vitro epitope analysis: transient-transfection CIFAT on human LPAR1 with residue substitutions to alanine; format: binding; settings: human LPAR1 position 286 (Q, ECD3) substituted to alanine
T1 construct: HA; expressed in transfected cells; host or cells: CHO-K1 (transient)
Description: (§1) CHO-K1 cells were seeded in clear 96-well plates at 20,000 cells per 200 μL full growth medium and incubated for 24 hours at 37° C. The following day, in a sterile tube, 0.0309 uL/well PEI (Generon, MW 160,000) was diluted into 10 uL/well transfection medium (DMEM supplemented with 2 mM L-glutamine and Penicillin-Streptomycin). The diluted PEI was added to 100 ng/well DNA encoding the target protein (human LPAR1 (SEQ ID NO: 62) unless otherwise stated), before vortexing immediately and incubating the mixture for 10 minutes at room temperature. 200 μL/well full growth medium was added to the PEI-DNA mixture, then medium in wells was taken off and 200 ul full growth medium/PEI/DNA mixture was added in the wells of the adherent cell plate. […] After washing and cell fixation with 4% PFA, the binding of the antibodies was detected using a goat anti-human Alexa Fluor 488 detection antibody (Invitrogen), incubated for 1 hour at room temperature. Fluorescence at 488 nm was measured using a BMG LABTECH ClarioStar plate reader and microscopy images were taken at 10× magnification.
(§2) Based on the epitope analysis presented in FIGS. 3 and 4, constructs were designed to test the important residues/interaction regions predicted in silico. […] CHO-K1 cells were transiently transfected with these plasm ids and the binding of an anti-LPAR1 mAb assessed to each of these receptor variants using protocol 1.11. […]

human LPAR1 [5] = target: T2, human LPAR1 (Homo sapiens, UniProt Q92633, N35A); experiment: as above; format: binding; settings: human LPAR1 position 35 (N, N-terminus) substituted to alanine; binding of mAb with VH SEQ ID NO: 369, VL SEQ ID NO: 39
T2 construct: HA; expressed in transfected cells; host or cells: CHO-K1 (transient)
Description: as §1, §2

[6] = Study 1, BMS-986020 30 mg/kg oral twice daily, antibody 20 mg/kg i.p., Day 10

Sequence of LPAR1 (Q92633 whole entry): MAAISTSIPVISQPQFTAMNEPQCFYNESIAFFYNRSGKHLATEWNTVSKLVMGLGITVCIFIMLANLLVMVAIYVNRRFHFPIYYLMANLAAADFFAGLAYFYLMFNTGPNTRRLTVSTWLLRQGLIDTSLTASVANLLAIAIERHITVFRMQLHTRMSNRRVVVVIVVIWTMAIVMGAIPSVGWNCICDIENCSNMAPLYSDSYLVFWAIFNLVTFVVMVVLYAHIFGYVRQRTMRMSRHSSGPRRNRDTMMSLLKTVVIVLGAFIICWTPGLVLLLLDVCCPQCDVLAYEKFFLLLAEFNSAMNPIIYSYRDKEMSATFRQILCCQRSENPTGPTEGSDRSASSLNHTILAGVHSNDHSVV
T1 sequence (Q92633 whole entry Q286A): as the sequence (Q92633 whole entry) above, with Q286A counted along it
T2 sequence (Q92633 whole entry N35A): as the sequence (Q92633 whole entry) above, with N35A counted along it

mode of inhibition (LPAR1; G13 biosensor): competitive inhibitor | inhibition (LPAR1; interaction of G-protein G13 with the GPCR, in the presence of LPA): 100%
Molecule: Cc1noc(-c2ccc(-c3ccc(C4(C(=O)O)CC4)cc3)cc2)c1NC(=O)O[C@H](C)c1ccccc1 [BMS-986020]
binding to hepatic bile acid efflux transporters [1]: off-target binding | hepatobiliary toxicity ([2]; compound-specific, not mediated via antagonism of LPAR1): off-target hepatobiliary toxicity | efficacy in patients with idiopathic pulmonary fibrosis ([2]; human, in vivo): showed efficacy | cortical fibrosis (histological picrosirius staining) [3, 6]: reduced cortical fibrosis | kidney hydroxyproline [3, 6]: No observable difference | histological picrosirius staining ([3]; Study 2): No observable difference | kidney hydroxyproline ([3]; Study 2, BMS-986020 30 mg/kg oral vs vehicle, antibody 20 mg/kg (high) i.p. vs isotype antibody): trend towards reduced hydroxyproline

Epitope residue (human LPAR1 [4]): Inconclusive | Epitope residue (human LPAR1 [5]): Inconclusive
B1: anti-LPAR1 mAb: mAb of the in vitro epitope analysis; VH of SEQ ID NO: 369 and VL of SEQ ID NO: 39 (antibody, V domains shown)
VH: QVQLVQSGSELKKPGASVKVSCKASGYTFTSSGISWVRQAPGQGLEWMGEILPRSGYTNYNQGFTGRFVFSADKSVSTAYLQISSLKAEDTAVYYCARDFASARYAMDYWGQGTTVTVSS
VL: SIQMTQSPSSLSASVGDRVTITCQASQSVRYNVAWYQQKPGKAPKLLIYYASNRYTGVPSRFSGSGSGTDFTFTISSLQPEDIATYFCQHHYSSPLTFGGGTKLEIK
modifications: REGION 1..120: note = >huVH4_Q61A97A99G104
